Measured values from ChEMBL document CHEMBL5331071, “Structure-activity relationship study of amidobenzimidazole derivatives as stimulator of interferon genes (STING) agonists” (Eur J Med Chem, 2023).

Assays:
[1] = target: T1, Stimulator of interferon genes protein (Homo sapiens, UniProt Q86WV6); test: Agonist activity at STING in human THP1-Dual cells incubated for 20 hrs by Quanti-luc reagent based assay; format: cell-based
[2] = target: T1, Stimulator of interferon genes protein; test: Agonist activity at STING in human […] KO-STING cells incubated for 20 hrs by Quanti-luc reagent based assay; format: cell-based, THP1-Dual KO-STING
[3] = Cytotoxicity against human THP1-Dual KO-STING cells assessed as inhibition of cell growth by MTS assay; format: functional, cell-based
[4] = test system: THP1-Dual; test: Cytotoxicity against human THP1-Dual habouring STING assessed as inhibition of cell growth by MTS assay; format: functional, cell-based

T1 sequence (Q86WV6 whole entry): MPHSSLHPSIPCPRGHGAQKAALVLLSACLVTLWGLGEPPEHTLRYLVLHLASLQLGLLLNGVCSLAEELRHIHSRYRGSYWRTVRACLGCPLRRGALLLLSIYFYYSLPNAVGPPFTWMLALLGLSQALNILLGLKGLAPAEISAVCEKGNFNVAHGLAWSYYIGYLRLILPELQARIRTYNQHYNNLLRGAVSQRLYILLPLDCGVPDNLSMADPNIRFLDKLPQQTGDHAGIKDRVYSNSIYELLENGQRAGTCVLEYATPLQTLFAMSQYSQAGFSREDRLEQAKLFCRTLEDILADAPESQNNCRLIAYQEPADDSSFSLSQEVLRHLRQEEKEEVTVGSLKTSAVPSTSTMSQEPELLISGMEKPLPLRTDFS

SMILES | EC50 [1] | EC50 [2] | IC50 [3] | IC50 [4]
CCn1nc(C)cc1C(=O)Nc1nc2cc(C(N)=O)cc(OCCCN3CCOCC3)c2n1NCCCC(=O)NCc1ccc(F)cc1 | 9.73 µM | > 100 µM | > 100 µM | > 100 µM
CCn1nc(C)cc1C(=O)Nc1nc2cc(C(N)=O)cc(OC)c2n1C/C=C/CNC(=O)Cc1cnccn1 | > 100 µM | > 100 µM | > 100 µM | > 100 µM
CCn1nc(C)cc1C(=O)Nc1nc2cc(C(N)=O)cc(OC)c2n1C/C=C/CNC(=O)Cc1ccc(C(F)(F)F)cc1 | > 100 µM | > 100 µM | > 100 µM | > 100 µM
CCn1nc(C)cc1C(=O)Nc1nc2cc(C(N)=O)cc(OC)c2n1C/C=C/CNC(=O)c1cnc(OC)cn1 | > 100 µM | > 100 µM | > 100 µM | > 100 µM
CCn1nc(C)cc1C(=O)Nc1nc2cc(C(N)=O)cc(OC)c2n1C/C=C/CNC1CCN(C)CC1 | > 100 µM | > 100 µM | > 100 µM | > 100 µM
CCn1nc(C)cc1C(=O)Nc1nc2cc(C(N)=O)cc(OC)c2n1NCCCC(=O)NCc1ccc(F)cc1F | 3.57 µM | > 100 µM | > 100 µM | > 100 µM
CCn1nc(C)cc1C(=O)Nc1nc2cc(C(N)=O)cc(OC)c2n1NCCCC(=O)NCc1ccc(OC)cc1 | 4.1 µM | > 100 µM | > 100 µM | > 100 µM
CCn1nc(C)cc1C(=O)Nc1nc2cc(C(N)=O)cc(OC)c2n1C/C=C/CNc1ncc(C(N)=O)cn1 | > 100 µM | > 100 µM | > 100 µM | > 100 µM
CCn1nc(C)cc1C(=O)Nc1nc2cc(C(N)=O)cc(OC)c2n1C/C=C/CNC(=O)c1cnc(C(F)(F)F)cn1 | > 100 µM | > 100 µM | > 100 µM | > 100 µM
CCn1nc(C)cc1C(=O)Nc1nc2cc(C(N)=O)cc(OC)c2n1NCCCC(=O)NCc1ccc(C(F)(F)F)cc1 | 13 µM | > 100 µM | > 100 µM | > 100 µM
CCn1nc(C)cc1C(=O)Nc1nc2cc(C(N)=O)cc(OC)c2n1C/C=C/CNC1CCOCC1 | > 100 µM | > 100 µM | > 100 µM | > 100 µM
CCn1nc(C)cc1C(=O)Nc1nc2cc(C(N)=O)cc(OC)c2n1C/C=C/CNC(=O)C1CCCC1 | > 100 µM | > 100 µM | > 100 µM | > 100 µM
CCn1nc(C)cc1C(=O)Nc1nc2cc(C(N)=O)cc(OCC3COC3)c2n1NCCCC(=O)NCc1ccc(F)cc1 | 7.13 µM | > 100 µM | > 100 µM | > 100 µM
CCn1nc(C)cc1C(=O)Nc1nc2cc(C(N)=O)cc(OC)c2n1NCCCNC(=O)NCc1ccccc1 | 8.52 µM | > 100 µM | > 100 µM | > 100 µM
CCn1nc(C)cc1C(=O)Nc1nc2cc(C(N)=O)cc(OC)c2n1C/C=C/CNC(=O)c1cc(C(F)(F)F)cc(C(F)(F)F)c1 | > 100 µM | > 100 µM | > 100 µM | > 100 µM
CCn1nc(C)cc1C(=O)Nc1nc2cc(C(N)=O)cc(OC)c2n1NCCCC(=O)NCc1ccc(Br)cc1F | 5.28 µM | > 100 µM | > 100 µM | > 100 µM
CCn1nc(C)cc1C(=O)Nc1nc2cc(C(N)=O)cc(OC)c2n1NCCCC(=O)NCc1ccccc1F | 4.17 µM | > 100 µM | > 100 µM | > 100 µM
CCn1nc(C)cc1C(=O)Nc1nc2cc(C(N)=O)cc(OC)c2n1C/C=C/CNC1CCC(N(C)C)CC1 (stereo unspecified) | > 100 µM | > 100 µM | > 100 µM | > 100 µM
CCn1nc(C)cc1C(=O)Nc1nc2cc(C(N)=O)cc(OC)c2n1NCCCC(=O)NCc1ccc(Cl)cc1Br | 96.3 µM | > 100 µM | > 100 µM | > 100 µM
CCn1nc(C)cc1C(=O)Nc1nc2cc(C(N)=O)cc(OC)c2n1NCCCC(=O)NCc1ccc(Cl)cc1 | 3.22 µM | > 100 µM | > 100 µM | > 100 µM
CCn1nc(C)cc1C(=O)Nc1nc2cc(C(N)=O)cc(OC)c2n1NCCCC(=O)NCc1ccc(Cl)cc1C(F)(F)F | > 100 µM | > 100 µM | > 100 µM | > 100 µM
CCn1nc(C)cc1C(=O)Nc1nc2cc(C(N)=O)cc(OC)c2n1C/C=C/CNC(=O)c1cnccn1 | > 100 µM | > 100 µM | > 100 µM | > 100 µM
CCn1nc(C)cc1C(=O)Nc1nc2cc(C(N)=O)cc(OC)c2n1C/C=C/Cn1c(C(F)(F)F)nc2cc(C(N)=O)ccc21 | > 100 µM | > 100 µM | > 100 µM | > 100 µM
CCn1nc(C)cc1C(=O)Nc1nc2cc(C(N)=O)cc(OC)c2n1C/C=C/Cn1c(=O)[nH]c2cc(C(N)=O)ccc21 | > 100 µM | > 100 µM | > 100 µM | > 100 µM
CCn1nc(C)cc1C(=O)Nc1nc2cc(C(N)=O)cc(OC)c2n1C/C=C/CNc1ccc(C(N)=O)cc1[N+](=O)[O-] | > 100 µM | > 100 µM | > 100 µM | > 100 µM
CCn1nc(C)cc1C(=O)Nc1nc2cc(C(N)=O)cc(OC)c2n1NCCCC(=O)N(C)Cc1ccccc1 | 11.2 µM | > 100 µM | > 100 µM | > 100 µM

Further lines, with some results ahead:

EC50 [1] | EC50 [2] | SMILES | IC50 [3] | IC50 [4]
> 100 µM | > 100 µM | CCn1nc(C)cc1C(=O)Nc1nc2cc(C(N)=O)cc(OC)c2n1CCOCCNC(=O)c1ccc(C(F)(F)F)cc1 | > 100 µM | > 100 µM
0.93 µM | > 100 µM | CCn1nc(C)cc1C(=O)Nc1nc2cc(C(N)=O)cc(OC)c2n1CCCNC(=O)c1ccc2ccccc2c1 | > 100 µM | 10.8 µM
9.83 µM | > 100 µM | CCn1nc(C)cc1C(=O)Nc1nc2cc(C(N)=O)cc(OC)c2n1CCCC(=O)Nc1ccc2ccccc2c1 | > 100 µM | > 100 µM
> 100 µM | > 100 µM | CCn1nc(C)cc1C(=O)Nc1nc2cc(C(N)=O)cc(OC)c2n1CCCN1CCN(C(=O)c2ccc3ccccc3c2)CC1 | > 100 µM | > 100 µM
> 100 µM | > 100 µM | CCn1nc(C)cc1C(=O)Nc1nc2cc(C(N)=O)cc(OC)c2n1C/C=C/CNC(=O)Cc1ccccc1 | > 100 µM | > 100 µM
> 100 µM | > 100 µM | CCn1nc(C)cc1C(=O)Nc1nc2cc(C(N)=O)cc(OC)c2n1CCCN1CCC(NC(=O)c2ccc3ccccc3c2)CC1 | > 100 µM | > 100 µM
47.1 µM | > 100 µM | CCn1nc(C)cc1C(=O)Nc1nc2cc(C(N)=O)cc(OC)c2n1C/C=C/CNC(=O)c1ccccc1 | > 100 µM | > 100 µM
40.9 µM | > 100 µM | CCn1nc(C)cc1C(=O)Nc1nc2cc(C(N)=O)cc(OC)c2n1NCCCC(=O)NCc1ccc(-c2ccccc2)cc1 | > 100 µM | > 100 µM
> 100 µM | > 100 µM | CCn1nc(C)cc1C(=O)Nc1nc2cc(C(N)=O)cc(OC)c2n1C/C=C/CNC(=O)c1ccc(Cl)cc1 | > 100 µM | > 100 µM
> 100 µM | > 100 µM | CCn1nc(C)cc1C(=O)Nc1nc2cc(C(N)=O)cc(OC)c2n1CCOCCNC(=O)c1ccc(OC)cc1 | > 100 µM | > 100 µM
9.81 µM | > 100 µM | CCn1nc(C)cc1C(=O)Nc1nc2cc(C(N)=O)cc(OC)c2n1CCCC(=O)Nc1ccccc1 | > 100 µM | > 100 µM
1.12 µM | > 100 µM | CCn1nc(C)cc1C(=O)Nc1nc2cc(C(N)=O)cc(OCC3CC3)c2n1NCCCNC(=O)c1ccc2ccccc2c1 | 12.1 µM | > 100 µM
> 100 µM | > 100 µM | CCn1nc(C)cc1C(=O)Nc1nc2cc(C(N)=O)cc(OC)c2n1Cc1cn(CCc2ccccc2)nn1 | > 100 µM | > 100 µM
> 100 µM | > 100 µM | CCn1nc(C)cc1C(=O)Nc1nc2cc(C(N)=O)cc(OC)c2n1CCCN1CCC(C(=O)Nc2ccccc2)CC1 | > 100 µM | > 100 µM
> 100 µM | > 100 µM | CCn1nc(C)cc1C(=O)Nc1nc2cc(C(N)=O)cc(OC)c2n1Cc1cn(Cc2ccc3ccccc3c2)nn1 | > 100 µM | > 100 µM
> 100 µM | > 100 µM | CCn1nc(C)cc1C(=O)Nc1nc2cc(C(N)=O)cc(OC)c2n1C/C=C/CNC(=O)c1ccc(F)cc1 | > 100 µM | > 100 µM
> 100 µM | > 100 µM | CCn1nc(C)cc1C(=O)Nc1nc2cc(C(N)=O)cc(OC)c2n1CCOCCNC(=O)c1ccc2ccccc2c1 | > 100 µM | > 100 µM
> 100 µM | > 100 µM | CCn1nc(C)cc1C(=O)Nc1nc2cc(C(N)=O)cc(OC)c2n1CCCNC(=O)c1ccc(-c2ccccc2)cc1 | > 100 µM | > 100 µM
7.04 µM | > 100 µM | CCn1nc(C)cc1C(=O)Nc1nc2cc(C(N)=O)cc(OC)c2n1CCCC(=O)NCc1ccc2ccccc2c1 | > 100 µM | > 100 µM
> 100 µM | > 100 µM | CCn1nc(C)cc1C(=O)Nc1nc2cc(C(N)=O)cc(OC)c2n1C/C=C/CNC(=O)Nc1ccc2ccccc2c1 | > 100 µM | > 100 µM
> 100 µM | > 100 µM | CCn1nc(C)cc1C(=O)Nc1nc2cc(C(N)=O)cc(OC)c2n1CCCN1CCN(Cc2ccc3ccccc3c2)C(=O)C1 | > 100 µM | > 100 µM
> 100 µM | > 100 µM | CCn1nc(C)cc1C(=O)Nc1nc2cc(C(N)=O)cc(OC)c2n1NCCCNC(=O)Nc1ccc2ccccc2c1 | > 100 µM | > 100 µM
> 100 µM | > 100 µM | CCn1nc(C)cc1C(=O)Nc1nc2cc(C(N)=O)cc(OC)c2n1CCCN1CCC(C(=O)Nc2ccc3ccccc3c2)CC1 | > 100 µM | > 100 µM
